Common to all, as to experiment: IC50 (viability, PrestoBlue) (log10 nM)
What all share (settings): exposure time: 72 h

Assay [1] relates to murine gastric organoid WNT-activated (Apc fl/fl; Tp53 R172H). Put shortly: (§1)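 Murine gastric corpus organoids, either uninduced or Cre-induced (RAS-activated, WNT-activated or diffuse), were broken up mechanically and seeded in 15 μl Matrigel beneath 45 μl medium in 384-well plates pre-spotted with DMSO-diluted compounds at nine final concentrations spanning 6.7 to 25,004 nM. After 72 h of incubation, PrestoBlue was added at 1× final for 3 h at 37°C and fluorescence was read at 560/590 nm. Half-maximal inhibitory concentrations were fitted by non-linear regression in Prism. Values are expressed in log10 nM as the mean of three passages × two wells.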

The test system of assay [2] is murine gastric organoid diffuse (Cdh1 fl/fl; Apc fl/fl). A digest of the protocol: as §1
The subject of assay [3] is murine gastric organoid RAS-activated (Kras G12D; Tp53 R172H). Put shortly: as §1
The subject of assay [4] is murine normal gastric organoid. Put shortly:
as §1

The structures appear in SMILES notation. Counter-ions that a name gives are not always drawn.

This note sets out measurements from the supplement of paper PMC9549728.

Turning to `C/C=C1\NC(=O)[C@H]2CSSCC/C=C/[C@H](CC(=O)N[C@H](C(C)C)C(=O)N2)OC(=O)[C@H](C(C)C)NC1=O` [Romidepsin], the “IC50 (log10 nM)” value in assay [1] was 0.997; in assay [2] it was 0.852; in assay [3] it was under 0.826; in assay [4], under 0.826.
Turning to `Cc1nc(C(=O)NCC(=O)O)c(O)c2ccc(Oc3ccccc3)cc12` [Roxadustat (FG-4592)], the “IC50 (log10 nM)” value in assay [1] was 1.23; in assay [2] it was 3.27; in assay [3] it was under 0.826; in assay [4], 2.38.
With `O=C(Nc1cccc(Cl)c1)Nc1ncc(CCNc2ncnc3ccsc23)s1` [SNS-314], the “IC50 (log10 nM)” value is 2.87 in assay [1], 4.02 in assay [2], 2.47 in assay [3] and 3.2 in assay [4].
In the case of `Cc1cc(C)c(/C=C2\C(=O)Nc3ccccc32)[nH]1` [SU 5416], the “IC50 (log10 nM)” value in assay [1] was found to be 3.77; in assay [2], 4.33; in assay [3], 4.36; in assay [4], 4.03.
Consider `Cn1cnc2c(F)c(Nc3ccc(Br)cc3Cl)c(C(=O)NOCCO)cc21` [Selumetinib], for which the “IC50 (log10 nM)” value was 3.32 in assay [1], 3.15 in assay [2], 2.61 in assay [3] and 2.47 in assay [4].
Turning to `CC(C)[C@H](O)C(=O)N[C@@H](C)C(=O)N[C@@H]1C(=O)N(C)CCc2ccccc21` [Semagacestat], the “IC50 (log10 nM)” value was 2.37 in assay [1], over 4.4 in assay [2], over 4.4 in assay [3] and 4.35 in assay [4].
As to `CNC(=O)c1cc(Oc2ccc(NC(=O)Nc3ccc(Cl)c(C(F)(F)F)c3)cc2)ccn1` [Sorafenib], the “IC50 (log10 nM)” value in assay [1] came out at 3.9; in assay [2], 3.88; in assay [3] it was 3.98; in assay [4], 3.78.
Consider `CN(N=O)C(=O)N[C@@H](C=O)[C@@H](O)[C@H](O)[C@H](O)CO` [Streptozocin], for which the “IC50 (log10 nM)” value in assay [1] is 4.07; in assay [2] it was over 4.4; in assay [3], over 4.4; in assay [4], 4.39.
For `CCN(CC)CCNC(=O)c1c(C)[nH]c(/C=C2\C(=O)Nc3ccc(F)cc32)c1C` [Sunitinib], the “IC50 (log10 nM)” value is 3.94 in assay [1], 3.92 in assay [2], 3.93 in assay [3] and 3.8 in assay [4].
Taken in the same sequence, the figures for `CC(=O)Nc1ccc(C(=O)Nc2ccccc2N)cc1` [Tacedinaline] were 4.35, 3.97, 3.87 and 4.34.
For `COc1cc2c(cc1OC)CN(CCc1ccc(NC(=O)c3cc(OC)c(OC)cc3NC(=O)c3cnc4ccccc4c3)cc1)CC2` [Tariquidar], the “IC50 (log10 nM)” value worked out at 3.76 in assay [1], 3.95 in assay [2], 3.73 in assay [3] and 4.26 in assay [4].
For the molecule `Cn1nnc2c(C(N)=O)ncn2c1=O` [Temozolomide], the “IC50 (log10 nM)” value in assay [1] is 4.02; in assay [2], over 4.4; in assay [3], over 4.4; in assay [4], 4.37.
As for `COc1cc([C@@H]2c3cc4c(cc3[C@@H](O[C@@H]3O[C@@H]5CO[C@@H](c6cccs6)O[C@H]5[C@H](O)[C@H]3O)[C@H]3COC(=O)[C@H]23)OCO4)cc(OC)c1O` [Teniposide], the “IC50 (log10 nM)” value in assay [1] came to 2.84; in assay [2], 2.35; in assay [3], 1.83; in assay [4], 1.79.
For `S=P(N1CC1)(N1CC1)N1CC1` [Thio-TEPA], the “IC50 (log10 nM)” value is 4.16 in assay [1], over 4.4 in assay [2], 4.17 in assay [3] and 4.21 in assay [4].
Taken in the same sequence, the figures for `CSc1ccc2c(c1)N(CCC1CCCCN1C)c1ccccc1S2` (stereo not drawn) [Thioridazine hydrochloride] were 3.52, 4.13, 4 and 3.9.
As for `Cn1cncc1[C@@](N)(c1ccc(Cl)cc1)c1ccc2c(c1)c(-c1cccc(Cl)c1)cc(=O)n2C` [Tipifarnib], the “IC50 (log10 nM)” value in assay [1] was 3.16; in assay [2], 3.73; in assay [3] it was under 0.826; in assay [4], 2.96.
Consider `O=C1NC(=O)[C@@H](c2cn3c4c(cccc24)CCC3)[C@@H]1c1c[nH]c2ccccc12` [Tivantinib], for which the “IC50 (log10 nM)” value came to 2.79 in assay [1], 3.1 in assay [2], 2.4 in assay [3] and 2.87 in assay [4].
As to `COc1cc2nccc(Oc3ccc(NC(=O)Nc4cc(C)on4)c(Cl)c3)c2cc1OC` [Tivozanib], the “IC50 (log10 nM)” value in assay [1] is 3.74; in assay [2] it was over 4.4; in assay [3], 3.6; in assay [4], 2.5.
As to `CC[C@@]1(O)C(=O)OCc2c1cc1n(c2=O)Cc2cc3c(CN(C)C)c(O)ccc3nc2-1` [Topotecan hydrochloride], the “IC50 (log10 nM)” value amounted to 2.36 in assay [1], 2.4 in assay [2], 1.68 in assay [3] and 1.48 in assay [4].
Taken in the same sequence, the figures for `CC(=O)Nc1cccc(-n2c(=O)n(C3CC3)c(=O)c3c(Nc4ccc(I)cc4F)n(C)c(=O)c(C)c32)c1` [Trametinib] were 1.9, 1.71, 1.33 and 1.36.
`CC(C)Nc1cc(-c2c[nH]c(C(=O)N[C@H](CO)c3cccc(Cl)c3)c2)c(Cl)cn1` [Ulixertinib]: the “IC50 (log10 nM)” value worked out at 2.96 in assay [1], 3.42 in assay [2], 3.09 in assay [3] and 2.79 in assay [4].
As for `Oc1ncc(N(CCCl)CCCl)c(O)n1` [Uramustine], the “IC50 (log10 nM)” value turned out to be 3.68 in assay [1], 3.69 in assay [2], 3.2 in assay [3] and 3.3 in assay [4].
Turning to `CCCCC(=O)OCC(=O)[C@]1(O)Cc2c(O)c3c(c(O)c2[C@@H](O[C@H]2C[C@H](NC(=O)C(F)(F)F)[C@H](O)[C@H](C)O2)C1)C(=O)c1c(OC)cccc1C3=O` [Valrubicin], the “IC50 (log10 nM)” value in assay [1] was determined as 2.65; in assay [2] it was 2.58; in assay [3] it was 2.49; in assay [4], 2.43.
In the case of `COc1cc2/c(=N/c3ccc(Br)cc3F)nc[nH]c2cc1OCC1CCN(C)CC1` [Vandetanib], the “IC50 (log10 nM)” value came out at 2.64 in assay [1], 2.76 in assay [2], 2.63 in assay [3] and 3.95 in assay [4].
As for `Clc1ccc(Nc2nnc(Cc3ccncc3)c3ccccc23)cc1` [Vatalanib], the “IC50 (log10 nM)” value in assay [1] is 3.61; in assay [2], 4.26; in assay [3], 3.75; in assay [4], 3.55.
Regarding `CC[C@]1(O)C[C@@H]2CN(CCc3c([nH]c4ccccc34)[C@@](C(=O)OC)(c3cc4c(cc3OC)N(C)[C@H]3[C@@](O)(C(=O)OC)[C@H](OC(C)=O)[C@]5(CC)C=CCN6CC[C@]43[C@@H]65)C2)C1` [Vinblastine sulfate], the “IC50 (log10 nM)” value in assay [1], in assay [2], in assay [3] and in assay [4] was under 0.826 each time.
Regarding `CC[C@]1(O)C[C@H]2CN(CCc3c([nH]c4ccccc34)[C@@](C(=O)OC)(c3cc4c(cc3OC)N(C=O)[C@H]3[C@@](O)(C(=O)OC)[C@H](OC(C)=O)[C@]5(CC)C=CCN6CC[C@]43[C@@H]65)C2)C1` [Vincristine sulfate], the “IC50 (log10 nM)” value in assay [1] came to 2.19; in assay [2] it was 1.89; in assay [3], 2.08; in assay [4], 1.68.
On to `CC[C@]12C=CCN3CC[C@@]4(c5cc([C@@]6(C(=O)OC)C[C@@H]7C[C@@H](C(C)(F)F)CN(Cc8c6[nH]c6ccccc86)C7)c(OC)cc5N(C)[C@H]4[C@@](O)(C(=O)OC)[C@@H]1OC(C)=O)[C@@H]32` [Vinflunine tartrate], for which the “IC50 (log10 nM)” value was found to be 1.63 in assay [1], 2.23 in assay [2], 2.32 in assay [3] and 2.09 in assay [4].
In the case of `CC[C@@H]1C(=O)N(C)c2cnc(Nc3ccc(C(=O)N[C@H]4CC[C@H](N5CCN(CC6CC6)CC5)CC4)cc3OC)nc2N1C(C)C` [Volasertib], the “IC50 (log10 nM)” value in assay [1] was found to be 2.19; in assay [2], 2.29; in assay [3] it was 2.09; in assay [4], 1.98.
Turning to `O=C(CCCCCCC(=O)Nc1ccccc1)NO` [Vorinostat], the “IC50 (log10 nM)” value in assay [1] stood at 3.67; in assay [2], 3.65; in assay [3], 3.28; in assay [4], 3.62.
Taken in the same sequence, the figures for `C[C@H](NC(=O)/C(C#N)=C/c1cccc(Br)n1)c1ccccc1` [WP1066] were 3.26, 3.52, 3.49 and 3.47.
For `O[C@@H](COc1cccc2ncccc12)CN1CCN([C@@H]2c3ccccc3[C@@H]3[C@H](c4ccccc42)C3(F)F)CC1` [Zosuquidar trihydrochloride], the “IC50 (log10 nM)” value in assay [1] turned out to be 4.03; in assay [2] it was 4.02; in assay [3] it was 4.07; in assay [4], 3.88.
